Source: patent US20060234909A1, “Compositions and methods for increasing drug efficiency” (priority 2003, published 2006)
Primed or numbered codes have the meaning given here. * marks the point of attachment. 10Ca = carbamate linkage conjugating the peptide-PEG to paclitaxel at C10; 10Ca‑PXL = paclitaxel conjugated at C10 via a carbamate; 3Am‑VBL = vinblastine (VBL) conjugate; 3′Alk‑MAL(9) = not defined here; ALK(6) = not defined here; MAL(9) = not defined here; 3′Alk = not defined here; PEG(11) = PEG(11) linker; PEG(29) = PEG(29) linker; 10Es = not defined here; PEG(11)″ = PEG11 linker; 3Am = not defined here; Cbz = O=C(OCc1ccccc1)*; PEG(13) = PEG13 linker; Boc = CC(C)(C)OC(=O)*; Piv = CC(C)(C)C(=O)*; OBn = c1ccc(CO*)cc1; DOX = doxorubicin; VBL = vinblastine; PXL = paclitaxel

Key:
tubulin = experiment: Fluorescence-based tubulin polymerization assay (MPA; enhancement for paclitaxel, inhibition for vinblastine); type: biochemical
Description: Drug-linker constructs may further be screened using functional assays predictive of biological activity. […] Tubulin assembly or inhibition thereof may be monitored by fluorescence using the CytoDYNAMIX Screen™ 10 kit available from Cytoskeleton (1830 S. Acoma St., Denver, Colo.). […] Emission is monitored at 405 nm with excitation at 360 nm. […] Tubulin assembly or inhibition may also be monitored by light scattering which is approximated by the apparent absorption at 350 nm. For paclitaxel drug conjugates BSA is employed to prevent aggregation and glycerol, which is a tubulin polymerization enhancer, is omitted from the kit to increase the signal to noise ratio.
The assay kit (#BK011) was purchased from Cytoskeleton (Denver, Colo.). The assays were carried out according to the manufacturer's instructions, except that 1 mg/ml BSA (Sigma #A3059) was included in all assays. […] Parent drugs and conjugates were tested at 0.75, 1.5, 3 and 10 micromolar final concentration and results represent a comparison of conjugate and parent drug curves obtained from the linear range of the dose responses.
(±SD) represent the average of all tests carried out for all lots of a given compound.

Human Src = target: T1, Human Src (Homo sapiens, UniProt P12931); experiment: Src kinase assay (PKLight ATP utilization, substrate phosphorylation as % of parent peptide); type: biochemical; settings: for Src (Qual. Act.): DOX-Src kinase substrate conjugates
T1 construct: purchased Upstate (Charlottesville, Va.) 14-326
Method: Another test may involve monitoring the consumption of ATP. For example, ATP concentrations at time 0 or after 4 hour incubation may be monitored by luciferase reaction (PKLight kit obtained from Cambrex Corporation, One Meadowlands Plaza, East Rutherford, N.J. 07073), which generate a luminescence readout in the presence of ATP. Assays are initiated by mixing a kinase and a peptide in the presence of 40 μM ATP. After 4 hour of incubation at 30° C., PKLight reagent is added and mixed well, and luminescence readout measured. The rate of peptide phosphorylation is then directly related to the rate of decrease in the observed luminescence. Based on the first test, linkers of appropriate lengths and peptides with an effective amount of kinase activity which may be expected to be retained in the drug conjugate may be found.
Human Src (#14-326) and Akt (#14-276) kinases were purchased from Upstate (Charlottesville, Va.). Kinase reactions were carried out in 50 μl kinase reaction cocktail (25 mM Tris-HCl, pH 7.5, 5 μM β-glycerophosphate, 2 mM DTT, 0.1 mM Na3VO4, 10 mM MgCl2, 1 mg/ml BSA, […], 0.5 to 1.0 units enzyme). Substrates (peptide or drug-peptide conjugate in […]) were added (25, 50 and 100 μM) and the reaction was incubated for 2-5 hours at 30° C. PKLight reagent (23 μl) (Cambrex BioSciences, Rockland, Me.) was mixed with […] of the above kinase reaction and ATP utilization relative to no substrate and no ATP controls was determined by measuring luminescence with a SpectraMax Gemini EM plate reader (Molecular Devices, Sunnyvale, Calif.). Peptide substrates for Src and Akt have been described. For examples, see Lou et al. Letters in Peptide Science, 2, 289-296 (1995); Lou et al. Bioorganic & Medicinal Chemistry, 4, 677-682 (1996); Alessi et al. FEBS Letters, 399, 333-338 (1996). Substrate phosphorylation potential was determined from the linear portion of the substrate concentration dose response as a percentage of the activity observed with the parent peptide used for drug conjugation.

MCF-7 breast carcinoma = experiment: Cytotoxicity assay (monolayer), MCF-7; type: cell-based; settings: MCF7, ML (monolayer); read-out: MCF7 (EC50 Ave) ML;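 further: cells treated 72 h with 6-8 compound doses versus DMSO vehicle controls, EC50 fitted by 4-parameter dose-response curves, averaged across all tests and lots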
[1] = tested on: HT-29 colorectal carcinoma; experiment: Cytotoxicity assay (monolayer), HT-29; type: cell-based; settings: HT29, ML (monolayer); read-out: HT29 (EC50 Ave) ML;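 further: monolayer cultures tested in triplicate, compound exposure for three days against DMSO vehicle controls, EC50 fitted from dose-response curves and averaged across all tests and lots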
HUVEC = experiment: Cytotoxicity assay (monolayer), HUVEC; type: cell-based; settings: ML (monolayer), read-out: HUVEC (EC50 Ave) ML
[2] = tested on: Normal human foreskin fibroblasts (HFF); settings: read-out: HFF (EC50 Ave) ML; HFF, ML (monolayer)

Substance	Ave. MPA Act. (tubulin)	Average src kinase activity (Human Src)	EC50 (MCF-7 breast carcinoma) [µM]	EC50 [1] [µM]	EC50 (HUVEC) [µM]	Src (Qual. Act.) (Human Src)	EC50 [2] [µM]
Ac-E(Bzl)YIYGSFK(CBz)-PEG(13)-10Ca-PXL (Ac-E(OBn)YIYGSFK(Cbz)-{PEG(13)-10Ca-PXL})	A (A<50)	Zero	–	–	–	–	–
Ac-EYIFGSFK-PEG(13)-10Ca-PXL (N-acetyl, PEG13, paclitaxel conjugate)	B (B=50-80)	Zero	> 0.1	> 0.1	> 0.1	–	–
Ac-EYIYGSFK(CBz)-PEG(13)-10Ca-PXL (Ac-EYIYGSFK(Cbz)-{PEG(13)-10Ca-PXL})	A (A<50)	B (B=20-40)	> 0.1	> 0.1	> 0.1	–	–
Ac-EYIYGSFK-3′Alk-MAL(9)-DOX (Ac-EYIYGSFK-{3′Alk‑MAL(9)-DOX}; reading uncertain; also: printed as Ac-EYIYGSFK-3′Alk-MAL(9)-DOX)	–	–	> 0.1	–	> 0.1	C (C>40)	> 0.1
Ac-EYIYGSFR-PEG(13)-10Ca-PXL (N-acetyl, PEG13, paclitaxel conjugate)	B (B=50-80)	B (B=20-40)	> 0.1	> 0.1	> 0.1	–	> 0.1
Ac-YIFGSFK(BOC)-PEG(11)-3Am-VBL (Ac-YIFGSFK(Boc)-{PEG(11)″-3Am-VBL}; reading uncertain; also: printed as Ac-YIFGSFK(BOC)-PEG(11)-3Am-VBL)	B (B=50-80)	B (B=20-40)	> 0.1	> 0.1	> 0.1	–	> 0.1
Ac-YIFGSFK-PEG(11)-3Am-VBL (N-acetyl; PEG(11) linker; vinblastine conjugate)	B (B=50-80)	C (C>40)	> 0.1	> 0.1	> 0.1	–	> 0.1
Ac-YIYGSFH-PEG(11)-3Am-VBL (N-acetyl; PEG(11) linker; vinblastine conjugate)	C (C>80)	C (C>40)	> 0.1	> 0.1	> 0.1	–	> 0.1
Ac-YIYGSFK-3′Alk-MAL(9)-DOX (Ac-YIYGSFK-{3′Alk-MAL(9)-DOX}; reading uncertain; also: printed as Ac-YIYGSFK-3′Alk-MAL(9)-DOX)	–	–	> 0.1	–	–	C (C>40)	–
Ac-YIYGSFK-PEG(13)-10Ca-PXL (N-acetyl; PEG(13) linker; paclitaxel conjugate)	B (B=50-80)	C (C>40)	> 0.1	> 0.1	> 0.1	–	–
Ac-YIYGSFR-PEG(13)-10Ca-PXL (N-acetyl; PEG(13) linker; paclitaxel conjugate)	B (B=50-80)	C (C>40)	> 0.1	> 0.1	> 0.1	–	> 0.1
Ac-YIYGSFS-PEG(11)-3Am-VBL (N-acetyl; PEG(11) linker; vinblastine conjugate)	B (B=50-80)	C (C>40)	> 0.1	> 0.1	> 0.1	–	> 0.1
BOC-GIYWHHY-PEG(11)-3Am-VBL (N-BOC; PEG(11) linker; vinblastine conjugate)	B (B=50-80)	A (A<20)	> 0.1	> 0.1	–	–	–
BOC-GIYWHHY-PEG(29)-3Am-VBL (N-BOC; PEG(29) linker; vinblastine conjugate)	B (B=50-80)	A (A<20)	> 0.1	–	> 0.1	–	> 0.1
BOC-YI(phospho)YGSFK(BOC)-PEG(11)-3Am-VBL (Boc-YIYGSFK(Boc)-{PEG(11)-3Am-VBL}; reading uncertain; also: phospho at I2 as written: I(phospho), printed as BOC-YI(phospho)YGSFK(BOC)-PEG(11)-3Am-VBL)	C (C>80)	C (C>40)	> 0.1	–	> 0.1	–	0.02 to 0.1
BOC-YIYGSFK(BOC)-PEG(11)-3Am-VBL (N-BOC; BOC side chain; PEG(11); vinblastine conjugate)	B (B=50-80)	A (A<20)	0.02 to 0.1	0.02 to 0.1	> 0.1	–	> 0.1
BOC-YIYGSFS-PEG(11)-3Am-VBL (N-BOC; PEG(11) linker; vinblastine conjugate)	C (C>80)	C (C>40)	> 0.1	> 0.1	> 0.1	–	> 0.1
CBz-GIYWHHY-PEG(11)-3Am-VBL (N-CBz; PEG(11) linker; vinblastine conjugate)	B (B=50-80)	A (A<20)	> 0.1	> 0.1	–	–	–
CBz-YIYGSFK(BOC)-PEG(11)-3Am-VBL (Cbz-YIYGSFK(Boc)-{PEG(11)-3Am-VBL}; reading uncertain; also: printed as CBz-YIYGSFK(BOC)-PEG(11)-3Am-VBL)	C (C>80)	A (A<20)	> 0.1	> 0.1	> 0.1	–	–
CBz-YIYGSFK(CBz)-ALK(6)-10Es-PXL (Cbz-YIYGSFK(Cbz)-{ALK(6)-10Es-PXL}; reading uncertain; also: printed as CBz-YIYGSFK(CBz)-ALK(6)-10Es-PXL)	–	Zero	0.02 to 0.1	> 0.1	–	–	–
CBz-YIYGSFK-3′Alk-MAL(9)-DOX (Cbz-YIYGSFK-{3′Alk-MAL(9)-DOX}; reading uncertain; also: printed as CBz-YIYGSFK-3′Alk-MAL(9)-DOX)	–	–	> 0.1	–	> 0.1	C (C>40)	–
H-GIYWHHY-PEG(29)-3Am-VBL (H-GIYWHHY-{PEG(29)-3Am-VBL}; reading uncertain)	C (C>80)	C (C>40)	> 0.1	–	> 0.1	–	> 0.1
H-YIYGSFK-3′Alk-MAL(9)-DOX (H-YIYGSFK-{3′Alk-MAL(9)-DOX}; reading uncertain)	–	–	> 0.1	–	–	C (C>40)	> 0.1
H-YIYGSFK-ALK(6)-10Es-PXL (H-YIYGSFK-{ALK(6)-10Es-PXL}; reading uncertain)	B (B=50-80)	C (C>40)	> 0.1	> 0.1	–	–	> 0.1
Pv-GRSRTSSFAEG-PEG(13)-10Ca-PXl (Piv-GRSRTSSFAEG-{PEG(13)-10Ca‑PXL}; also: 2 TFA salt)	C (C>80)	–	–	–	–	–	–
Pv-RLVAYEGYV-PEG(11)-3Am-VBL (Piv-RLVAYEGYV-{PEG(11)-3Am‑VBL})	B (B=50-80)	–	> 0.1	> 0.1	> 0.1	–	> 0.1
Pv-RLVAYEGYV-PEG(13)-10Ca-PXL (Piv-RLVAYEGYV-{PEG(13)-10Ca‑PXL})	A (A<50)	–	> 0.1	> 0.1	> 0.1	–	> 0.1
